Some test systems named below: UO-31 renal; HCC-2998 colon; HOP-62 NSCLC; OVCAR-5 ovarian; A498 renal; NCI-H460 lung; U251 CNS; UACC-62 melanoma; CAKI-1 renal; SK-OV-3 ovarian.
Common to all, as to experiment: inhibition of tumour cell growth, NCI panel, 48 h

Each structure is given as a SMILES string.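 Grown in 96-well plates, cells were treated for 48 hours with each compound at five concentrations. Insufficient inhibition: endpoint recorded as highest concentration tested. The concentration for 50% growth inhibition is given as GI50. TGI denotes the concentration required for complete inhibition of growth.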

For `CC1=C(Cl)C=CP(=O)(OC(C)C)C1` (stereo not drawn), the TGI in the experiment with UO-31 renal, with HCC-2998 colon, with HOP-62 NSCLC, in the experiment with OVCAR-5 ovarian, in the experiment with A498 renal and with NCI-H460 lung was > 100 µM throughout. Besides, the TGI in the experiment on U251 CNS and in the experiment with UACC-62 melanoma was > 100 µM in each case.
Consider `CCCNC(=O)c1ccc(Cl)cc1Cl`, for which the GI50 with UO-31 renal, in the experiment with HOP-62 NSCLC, in the experiment on CAKI-1 renal, in the experiment with OVCAR-5 ovarian, in the experiment on NCI-H460 lung and in the experiment on U251 CNS was > 100 µM each time. For the same compound, the GI50 in the experiment with UACC-62 melanoma and with SK-OV-3 ovarian was > 100 µM in each case. Further, the TGI in the experiment on UO-31 renal, in the experiment on HOP-62 NSCLC, with CAKI-1 renal, in the experiment on OVCAR-5 ovarian, in the experiment with NCI-H460 lung and in the experiment on U251 CNS was > 100 µM each time. Besides, the TGI in the experiment on UACC-62 melanoma and in the experiment on SK-OV-3 ovarian was > 100 µM each time.
On to `C#CC1(O)c2ccccc2C(=O)c2ccccc21`, for which the TGI in the experiment with HCC-2998 colon, in the experiment with HOP-62 NSCLC, in the experiment on CAKI-1 renal, in the experiment on OVCAR-5 ovarian, in the experiment with A498 renal and with NCI-H460 lung was > 100 µM in each case. Moreover, the TGI with U251 CNS is > 100 µM.
In the case of `Oc1ccc(CCNCc2cc3c(cc2Br)OCO3)cc1`, the TGI in the experiment with UO-31 renal, in the experiment on HOP-62 NSCLC, in the experiment on OVCAR-5 ovarian, in the experiment with A498 renal, in the experiment on NCI-H460 lung and in the experiment with U251 CNS was > 100 µM throughout. For the same compound, the TGI in the experiment on UACC-62 melanoma and in the experiment on SK-OV-3 ovarian was > 100 µM in each case.
Turning to `Cc1ccc(NC(=S)SCCC(=O)O)cc1`, the TGI in the experiment on UO-31 renal, in the experiment on HCC-2998 colon, in the experiment with HOP-62 NSCLC, in the experiment on CAKI-1 renal, in the experiment with OVCAR-5 ovarian and in the experiment with A498 renal was > 100 µM in each case. The TGI in the experiment on NCI-H460 lung and in the experiment with U251 CNS was > 100 µM each time.
For the compound `C/C=C/[C@H]1O[C@@H]2C(=C[C@H]1O)C(=O)O[C@H]2C`, the GI50 in the experiment on UO-31 renal was 7.51 µM; in the experiment with HCC-2998 colon, 27.9 µM; in the experiment on HOP-62 NSCLC, 23.4 µM; in the experiment on CAKI-1 renal, 5.3 µM; in the experiment with OVCAR-5 ovarian it was 23.2 µM; in the experiment with NCI-H460 lung, > 92 µM. In addition, the GI50 was 18.4 µM with U251 CNS, 17.6 µM in the experiment with UACC-62 melanoma and > 50.2 µM in the experiment on SK-OV-3 ovarian. Also, the TGI in the experiment with UO-31 renal is > 54.4 µM; in the experiment with HCC-2998 colon, 55.9 µM; in the experiment on HOP-62 NSCLC it was 48.4 µM; in the experiment on CAKI-1 renal, 17.1 µM; with OVCAR-5 ovarian it was 45.8 µM; in the experiment with NCI-H460 lung it was > 100 µM. Also, the TGI in the experiment with U251 CNS was 36.8 µM; in the experiment on UACC-62 melanoma it was 33.5 µM; with SK-OV-3 ovarian, > 66.7 µM.
As for `C=CC/C(=C\COP(=O)(OCc1ccc([N+](=O)[O-])o1)N(C)CCCCCl)CC/C=C(\C)CCC=C(C)C` (stereo not drawn), the GI50 was 12.6 µM in the experiment with UO-31 renal; 8.03 µM with CAKI-1 renal; 15.7 µM in the experiment with OVCAR-5 ovarian; 2.56 µM with NCI-H460 lung; 11 µM in the experiment on U251 CNS; 13.8 µM in the experiment on UACC-62 melanoma. In the experiment with SK-OV-3 ovarian, the GI50 was 16 µM. Besides, the TGI is 25.1 µM in the experiment with UO-31 renal; 21.2 µM with CAKI-1 renal; 29 µM in the experiment with OVCAR-5 ovarian; 15.1 µM in the experiment with NCI-H460 lung; 23 µM in the experiment on U251 CNS; 26.7 µM with UACC-62 melanoma. Moreover, the TGI in the experiment with SK-OV-3 ovarian turned out to be 30.6 µM.
For the compound `CCOC(=O)[C@H]1Nc2ccc([N+](=O)[O-])cc2C2c3ccccc3CC21` (stereo partly drawn), the TGI with UO-31 renal is 44 µM; with HCC-2998 colon it was 44.2 µM; in the experiment on HOP-62 NSCLC it was 39 µM; with CAKI-1 renal, > 100 µM; with OVCAR-5 ovarian, 70.4 µM; with NCI-H460 lung it was 44.7 µM. Moreover, the figures for the TGI in the experiment on U251 CNS and with UACC-62 melanoma were 33.1 µM and 30.6 µM, respectively.
Regarding `O=[N+]([O-])c1cc(Cl)ccc1OCc1ccccc1`, the TGI in the experiment on HCC-2998 colon, in the experiment on HOP-62 NSCLC, in the experiment with A498 renal, in the experiment with NCI-H460 lung, in the experiment with U251 CNS and in the experiment on UACC-62 melanoma was > 100 µM throughout. Further, the TGI in the experiment with SK-OV-3 ovarian was > 100 µM.
For `Cc1ccc(-c2cc(=O)c3cc(C)c(C)c(C(=O)O)c3o2)cc1N`, the TGI in the experiment on UO-31 renal, in the experiment on CAKI-1 renal, in the experiment with OVCAR-5 ovarian, in the experiment with NCI-H460 lung, in the experiment with U251 CNS and in the experiment on UACC-62 melanoma was > 100 µM throughout. Also, the TGI in the experiment on SK-OV-3 ovarian is > 100 µM.
Turning to `COc1ccc(/C=c2/sc3n(c2=O)NC2(CCC(C)CC2)NN=3)cc1` (stereo not drawn), the TGI in the experiment on UO-31 renal, with HCC-2998 colon, in the experiment with HOP-62 NSCLC, with CAKI-1 renal, in the experiment with OVCAR-5 ovarian and with NCI-H460 lung was > 100 µM in each case. The TGI with U251 CNS, in the experiment with UACC-62 melanoma and in the experiment with SK-OV-3 ovarian was > 100 µM in each case.
Consider `CC1(C)C(=O)/C=C\C(=O)C(C)(C)C(=O)/C=C\C(=O)C(C)(C)C(=O)/C=C\C(=O)C(C)(C)C(=O)/C=C\C1=O`, for which the TGI is 56 µM with UO-31 renal; > 100 µM in the experiment on HOP-62 NSCLC; 31.2 µM with CAKI-1 renal; 69.7 µM in the experiment on OVCAR-5 ovarian; > 100 µM in the experiment on A498 renal; > 100 µM in the experiment with NCI-H460 lung. In addition, the TGI in the experiment with U251 CNS is 64.3 µM; in the experiment with UACC-62 melanoma it was 56.3 µM; in the experiment with SK-OV-3 ovarian, > 96.1 µM.
With `COc1ccc(/C(Cl)=C(\c2ccc(OCCN(C)C)cc2)c2ccc(OC(=O)C(C)(C)C)cc2)cc1`, the TGI with UO-31 renal was determined as 19.3 µM; with HCC-2998 colon it was 29.2 µM; with HOP-62 NSCLC, 30.5 µM; with CAKI-1 renal, 27.8 µM; in the experiment with OVCAR-5 ovarian, 29.1 µM; with NCI-H460 lung, 28.7 µM. Further, the TGI with U251 CNS came out at 26.5 µM; with UACC-62 melanoma, 28 µM; with SK-OV-3 ovarian, 24.4 µM.
